Data set [1] can be described thus: Pharmacokinetics in the mouse (plasma levels by LC-MS after oral gavage of Example 1). The conditions noted are these: for AUC / Cmax / concentration at 0.5 h / concentration at 1 h / concentration at 5 h: mouse, female ICr mice, single oral gavage of Example 1 at 30 mg/kg, plasma; for concentration at 0.5 h: 0.5 hours post dosing; for concentration at 1 h: 1 hour post dosing; for concentration at 5 h: 5 hours post dosing. The data set is classed as in vivo. How it is done:
Female ICr mice received single doses of Example 1 by oral gavage at 30 mg/kg body weight. The vehicle used for administration consisted of 12.5% Cremophor, 12.5% ethanol and 75% saline. Blood samples were collected by cardiac puncture under anesthesia and plasma was isolated by centrifugation. Three animals were used for each time point of 0.5, 1 and 5 hours post dosing. Plasma levels of Example 1 and Intermediate 1 were measured by LC-MS.
Calibration samples (1 to 5,000 ng/mL) were prepared by spiking drug-free mouse plasma with known concentrations of Example 1 and Intermediate 1 and then processed with the study samples. An internal standard (close analog) was spiked at a final concentration of 100 ng/ml. Plasma samples were extracted via protein precipitation using acetonitrile (3:1). After vortexing for 1 minute, samples were centrifuged at 2500 rpm for 15 minutes. Supernatant was transferred to 96-well microtiter plates for LC-MS analysis. Analytes (Example 1 and Intermediate 1) and the internal standard were monitored using MRM transitions consisting of their protonated molecular ions to prominent fragment ions (Example 1 m/z 520 to m/z 270; Intermediate 1 m/z 465 to 252; internal standard m/z 469 to m/z 256). The calibration curve was constructed using least squares linear regression and utilized peak area ratios of the analyte and internal standard. Pharmacokinetic analysis of the measured plasma concentrations was conducted using the Watson® Drug Metabolism Laboratory Information Management System (Innaphase Corp, Philadelphia, Pa.). […] By changing the nature of substituent Q in Formula (I), it is possible to impact the stability, i.e., the speed of hydrolysis) of the prodrug, and therefore to modulate the plasma exposure to the pharmacologically active compound. High stabilities will lead to extended release of the drug, while low stabilities will contribute to high Cmax and short duration of action.

Here are results for 2 molecules from patent US7928227B2, “2-oxo-1,3,5-perhydrotriazapine derivatives useful in the treatment of hyper-proliferative, angiogenesis, and inflammatory disorders” (Bayer Healthcare LLC, priority 2003, dated 2011).

Molecules are shown by their SMILES.

In general, melting point refers to the temperature, or range, at which the solid turns liquid. In general, AUC refers to the area under the concentration-time curve, a measure of exposure. Read a high AUC as high exposure. As a reminder, the Cmax is the peak of the concentration-time curve. In the case of `CNC(=O)c1cc(Oc2ccc(N3CN(C)CN(c4ccc(Cl)c(C(F)(F)F)c4)C3=O)cc2)ccn1` [Example 1], the melting point lay within 82 to 85 °C. For the same molecule, in data set [1], the AUC was 53.1 µM·h, the highest level (Cmax) was 13 µM, the concentration at 0.5 h was found to be 12.1 µM and the concentration at 1 h was found to be 13 µM. In data set [1], this molecule registered a concentration at 5 h of 9.4 µM. Also, the Absorption in mice entry in data set [1] (oral gavage of Example 1 at 30 mg/kg, result in words) is “very well absorbed”.

`CNC(=O)c1cc(Oc2ccc(NC(=O)Nc3ccc(Cl)c(C(F)(F)F)c3)cc2)ccn1` [Intermediate 1, N-(4-chloro-3(trifluoromethyl)phenyl)-N′-(4-(2-(N-methylcarbamoyl)-4-pyridyloxy)phenyl)urea, reference compound]: in data set [1] (mice, oral gavage of Example 1 at 30 mg/kg, result in words), the “Levels detected in plasma after oral administration of the pro-drug Example 1” value was “significant levels”. Also, in data set [1], the AUC is 1 µM·h, the highest level (Cmax) was 0.3 µM, the concentration at 0.5 h is 0.1 µM and the concentration at 1 h was found to be 0.2 µM. Besides, the concentration at 5 h in data set [1] worked out at 0.5 µM.
